Test results: patent US11066414B2, “Cot modulators and methods of use thereof” (Gilead Sciences, Inc., priority 2015, dated 2021)
Like-named read-outs stand apart in the source and are kept apart here.

Legend:
Human Cot = Human Cot (Homo sapiens (Human), UniProt P41279); experiment: High Throughput Cot Biochemical Assay
TNFα = experiment: Cot Monocyte TNFα Cell Based Assay
[1] = IC50 HTRF, Cot HTRF (TR-FRET) biochemical assay
[2] = Homo sapiens, Monocyte, read-out: EC50 TNF, LPS-stimulated human monocytes, TNFα
[3] = IC50 HTRF, Cot HTRF (TR-FRET KinEASE) biochemical assay, 400 μM ATP
[4] = Homo sapiens, Monocyte, read-out: EC50 TNF, LPS-stimulated human monocytes, TNFα TR-FRET
[5] = read-out: IC50 HTRF, Cot HTRF (TR-FRET) biochemical assay
[6] = read-out: EC50 TNF, LPS-stimulated human monocytes, TNFα

Chain of Human Cot (P41279 30-397): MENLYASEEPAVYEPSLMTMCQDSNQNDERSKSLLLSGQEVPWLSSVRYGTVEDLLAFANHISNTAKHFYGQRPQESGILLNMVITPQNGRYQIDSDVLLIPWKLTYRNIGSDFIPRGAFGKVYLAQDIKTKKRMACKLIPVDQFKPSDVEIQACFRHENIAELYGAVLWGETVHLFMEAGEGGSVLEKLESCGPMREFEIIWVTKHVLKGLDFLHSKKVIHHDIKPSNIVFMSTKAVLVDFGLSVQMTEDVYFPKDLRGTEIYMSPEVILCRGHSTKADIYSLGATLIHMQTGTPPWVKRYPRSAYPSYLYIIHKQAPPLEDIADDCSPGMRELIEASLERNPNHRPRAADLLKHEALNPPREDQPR

IC50 (Human Cot; [1]) [nM]	EC50 (TNFα; [2]) [nM]	Structure (SMILES)	also measured
19	689	CN1Cc2cccc([C@H](Nc3cc(Cl)c4ncc(C#N)c(NCC(C)(C)C)c4c3)c3cn(C4(C(F)F)CC4)nn3)c2C1=O [Example 498, (S)-8-chloro-6-(((1-(1-(difluoromethyl)-cyclopropyl)-1H-1,2,3-triazol-4-yl)(2-methyl-3-oxoisoindolin-4-yl)methyl)-amino)-4-(neopentylamino)quinoline-3-carbonitrile]	
7	207	[2H][C@](Nc1cc(Cl)c2ncc(C#N)c(NCC(C)(C)C)c2c1)(c1ccc(F)nc1)c1cn(C2(C(F)F)CC2)nn1 [Example 518, (S)-8-chloro-6-(((1-(1-(difluoromethyl)-cyclopropyl)-1H-1,2,3-triazol-4-yl)(6-fluoropyridin-3-yl)methyl-d)amino)-4-(neopentylamino)quinoline-3-carbonitrile]	
3	79	Cc1nc(F)ccc1[C@H](Nc1cc(F)c2ncc(C#N)c(NCC(C)(C)C)c2c1)c1cn(C2(C)CC2)nn1 [Example 488, (S)-8-fluoro-6-(((6-fluoro-2-methylpyridin-3-yl)(1-(1-methylcyclopropyl)-1H-1,2,3-triazol-4-yl)methyl)amino)-4-(neopentyl-amino)quinoline-3-carbonitrile]	
4	100	CC(C)(C)CNc1c(C#N)cnc2c(Cl)cc(N[C@H](c3cn(C4(C(F)F)CC4)nn3)c3cccc4ncsc34)cc12 [Example 421, (S)-6-((benzo[d]thiazol-7-yl(1-(1-(difluoromethyl)cyclopropyl)-1H-1,2,3-triazol-4-yl)methyl)amino)-8-chloro-4-(neopentylamino)quinoline-3-carbonitrile]	
17	199	Cc1nc(F)ccc1[C@H](Nc1cc(Cl)c2ncc(C#N)c(Nc3cnc(F)c(F)c3)c2c1)c1cn(C2(C(F)F)CC2)nn1 [Example 742, (S)-8-chloro-6-(((1-(1-(difluoromethyl)cyclopropyl)-1H-1,2,3-triazol-4-yl)(6-fluoro-2-methylpyridin-3-yl)methyl)amino)-4-((5,6-difluoropyridin-3-yl)amino)quinoline-3-carbonitrile]	
184	1000	Cn1cc2cccc([C@H](Nc3cc(Cl)c4ncc(C#N)c(NCC(C)(C)C)c4c3)c3cn(C4(C(F)(F)F)CC4)nn3)c2n1 [Example 570, (S)-8-chloro-6-(((2-methyl-2H-indazol-7-yl)(1-(1-(trifluoromethyl)cyclopropyl)-1H-1,2,3-triazol-4-yl)methyl)amino)-4-(neopentylamino)quinoline-3-carbonitrile]	

More lines, now with the values behind:

Structure (SMILES)	IC50 (Human Cot; [1]) [nM]	EC50 (TNFα; [2]) [nM]	also measured
CC(C)(C)N1CCC(n2cc([C@@H](Nc3cc(Cl)c4ncc(C#N)c(Nc5ccc(Cl)c(Cl)c5F)c4c3)c3csc4c3CCN(C3COC3)C4)nn2)CC1 [Example 223, (S)-6-(((1-(1-(tert-butyl)piperidin-4-yl)-1H-1,2,3-triazol-4-yl)(6-(oxetan-3-yl)-4,5,6,7-tetrahydrothieno[2,3-c]pyridin-3-yl)methyl)amino)-8-chloro-4-((3,4-dichloro-2-fluorophenyl)amino)quinoline-3-carbonitrile]	7	94	
Cc1nc(F)ccc1[C@H](Nc1cc(C#N)c2ncc(C#N)c(NCC34CC(C3)C4)c2c1)c1cn(C2(C(F)(F)F)CC2)nn1 [Example 848, (S)-4-((bicyclo[1.1.1]pentan-1-ylmethyl)amino)-6-(((6-fluoro-2-methylpyridin-3-yl)(1-(1-(trifluoromethyl)cyclopropyl)-1H-1,2,3-triazol-4-yl)methyl)amino)quinoline-3,8-dicarbonitrile]			IC50 (Human Cot; [3]): 31 nM; EC50 (TNFα; [4]): 247 nM
Cn1nnc2cccc([C@H](Nc3cc(C#N)c4ncc(C#N)c(NCC(C)(C)C)c4c3)c3cn(C4(C(F)F)CC4)nn3)c21 [Example 559, (S)-6-(((4-(1-1-(difluoromethyl)cyclopropyl)-1H-1,2,3-triazol-4-yl)(1-methyl-1H-benzo[d] [1,2,3]triazol-7-yl)methyl)amino)-4-(neopentylamino)quinoline-3,8-dicarbonitrile]			IC50 (Human Cot; [5]): 2 nM; EC50 (TNFα; [6]): 42 nM
Cc1nc(F)ccc1[C@@H](Nc1cc(Cl)c2ncc(C#N)c(N[C@H](CCC#N)c3ccccc3)c2c1)c1cn(C2CC2)nn1 [Example 438, 8-chloro-4-(((R)-3-cyano-1-phenyl-propyl)amino)-6-(((R)-(1-cyclopropyl-1H-1,2,3-triazol-4-yl)(6-fluoro-2-methylpyridin-3-yl)methyl)amino)-quinoline-3-carbonitrile]	473	1000	
Cc1nc(F)ccc1[C@H](Nc1cc(Cl)c2ncc(C#N)c(Nc3cnc(F)c(F)c3)c2c1)c1nnn(C2(C(F)F)CC2)c1F [Example 953, (S)-8-chloro-6-(((1-(1-(difluoromethyl)cyclopropyl)-5-fluoro-1H-1,2,3-triazol-4-yl)(6-fluoro-2-methylpyridin-3-yl)methyl)amino)-4-((5,6-difluoropyridin-3-yl)amino)quinoline-3-carbonitrile]			IC50 (Human Cot; [3]): 36 nM; EC50 (TNFα; [4]): 353 nM
Cc1nc(F)ccc1[C@H](Nc1cc(Cl)c2ncc(C#N)c(NCC(C)(C)C(F)(F)F)c2c1)c1cn(C2(C3CC3)CC2)nn1 [Example 763, (S)-6-(((1-([1,1′-bi(cyclopropan)]-1-yl)-1H-1,2,3-triazol-4-yl)(6-fluoro-2-methylpyridin-3-yl)methyl)amino)-8-chloro-4-((3,3,3-trifluoro-2,2-dimethylpropyl)amino)-quinoline-3-carbonitrile]	3	40	
CCCN1CCC(n2cc([C@@H](Nc3cc(Cl)c4ncc(C#N)c(Nc5ccc(F)c(Cl)c5)c4c3)c3cncs3)nn2)CC1 [Example 373, (R)-8-chloro-4-((3-chloro-4-fluorophenyl)amino)-6-(((1-(1-propylpiperidin-4-yl)-1H-1,2,3-triazol-4-yl)(thiazol-5-yl)methyl)amino)-quinoline-3-carbonitrile]	3	81	
N#Cc1csc([C@H](Nc2cc(Cl)c3ncc(C#N)c(Nc4ccc(F)c(Cl)c4)c3c2)c2cn(Cc3ccccn3)nn2)c1 [Example 317, (R)-8-chloro-4-((3-chloro-4-fluorophenyl)amino)-6-(((4-cyano-thiophen-2-yl)(1-(pyridin-2-ylmethyl)-1H-1,2,3-triazol-4-yl)methyl)-amino)quinoline-3-carbonitrile]	16	251	
[2H][C@](Nc1cc(OC)c2ncc(C#N)c(N[C@H](CC)c3ccccc3)c2c1)(c1ccc(F)nc1)c1cn(C2CC2)nn1 [Example 97, 6-(((S)-(1-cyclopropyl-1H-1,2,3-triazol-4-yl)(6-fluoropyridin-3-yl)methyl-d)amino)-8-methoxy-4-(((R)-1-phenylpropyl)amino)-quinoline-3-carbonitrile]	20	358	
COc1nccc2c([C@H](Nc3cc(C#N)c4ncc(C#N)c(NCC(C)(C)C(F)(F)F)c4c3)c3cn(C4(C)CC4)nn3)cccc12 [Example 819, (S)-6-(((1-methoxylsoquinolin-5-yl)(1-(1-methylcyclopropyl)-1H-1,2,3-triazol-4-yl)methyl)amino)-4-((3,3,3-trifluoro-2,2-dimethylpropyl)amino)quinoline-3,8-dicarbonitrile]			IC50 (Human Cot; read-out: IC50 HTRF, Cot HTRF (TR-FRET KinEASE) biochemical assay, 400 μM ATP): 2 nM; EC50 (TNFα; read-out: EC50 TNF, LPS-stimulated human monocytes, TNFα TR-FRET): 28 nM
C[C@@H](Nc1c(C#N)cnc2c(Cl)cc(N[C@H](c3cn(C4CCN(C(C)(C)C)CC4)nn3)c3csc4c3CCN(C3COC3)C4)cc12)c1ccccc1 [Example 237]			IC50 (Human Cot; [5]): 1 nM; EC50 (TNFα; [6]): 29 nM
